Reference: ChEMBL document CHEMBL5465560, “Selectivity Literature for EUbOPEN Chemogenomic Library” (2024)
Each block holds one compound with its values, some of them ahead of it.

How the values were obtained:
[1] = biological target: T1, Rhodopsin kinase GRK1 (Homo sapiens) (UniProt Q15835); test: Selectivity interaction (KinomeScan (DiscoverX)) EUB0001049a GRK1; conditions: at 1 µM
T1 sequence (whole entry): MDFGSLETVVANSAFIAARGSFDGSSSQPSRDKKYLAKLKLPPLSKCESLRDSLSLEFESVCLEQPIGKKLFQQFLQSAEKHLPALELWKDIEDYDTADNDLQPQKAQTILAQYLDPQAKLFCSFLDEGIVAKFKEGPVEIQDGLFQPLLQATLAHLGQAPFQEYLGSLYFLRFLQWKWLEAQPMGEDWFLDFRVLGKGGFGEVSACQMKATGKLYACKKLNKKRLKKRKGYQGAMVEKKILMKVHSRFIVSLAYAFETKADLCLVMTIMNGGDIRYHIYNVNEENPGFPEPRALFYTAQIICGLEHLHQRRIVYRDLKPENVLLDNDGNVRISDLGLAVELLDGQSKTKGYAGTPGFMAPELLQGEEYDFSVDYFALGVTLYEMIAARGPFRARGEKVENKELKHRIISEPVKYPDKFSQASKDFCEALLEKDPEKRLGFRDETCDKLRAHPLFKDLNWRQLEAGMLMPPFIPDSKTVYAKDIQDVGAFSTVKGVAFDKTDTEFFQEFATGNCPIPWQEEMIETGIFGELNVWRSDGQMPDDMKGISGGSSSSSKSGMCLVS

[2] = biological target: 5'-AMP-activated protein kinase catalytic subunit alpha-1 (Homo sapiens, UniProt Q13131); test: Selectivity interaction (ActivX KiNativ screen (kinase selectivity in THP-1 cell lysates)) EUB0000639a PRKAA1; format: subcellular; conditions: lysate, at 0.04 µM
5'-AMP-activated protein kinase catalytic subunit alpha-1, sequence (Q13131 whole entry, looked up): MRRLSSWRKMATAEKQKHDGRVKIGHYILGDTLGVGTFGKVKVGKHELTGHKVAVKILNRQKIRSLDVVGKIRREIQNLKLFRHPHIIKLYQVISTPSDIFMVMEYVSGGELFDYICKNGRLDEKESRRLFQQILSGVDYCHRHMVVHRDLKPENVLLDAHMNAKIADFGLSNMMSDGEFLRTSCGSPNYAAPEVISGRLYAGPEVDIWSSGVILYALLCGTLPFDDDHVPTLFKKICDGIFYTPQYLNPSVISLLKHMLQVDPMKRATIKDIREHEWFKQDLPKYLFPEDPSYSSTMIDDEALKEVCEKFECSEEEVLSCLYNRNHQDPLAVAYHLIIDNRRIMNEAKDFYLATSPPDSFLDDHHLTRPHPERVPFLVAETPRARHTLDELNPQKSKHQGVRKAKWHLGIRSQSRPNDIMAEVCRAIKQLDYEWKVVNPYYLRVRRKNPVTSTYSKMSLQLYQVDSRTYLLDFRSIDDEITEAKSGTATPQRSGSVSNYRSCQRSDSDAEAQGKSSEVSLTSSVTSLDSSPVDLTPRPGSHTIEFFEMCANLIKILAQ

[3] = biological target: T2, Protein kinase C iota type (Homo sapiens) (UniProt P41743); test: Selectivity interaction (ActivX KiNativ screen (kinase selectivity in THP-1 cell lysates)) EUB0000639a PRKCI; format: subcellular; conditions: lysate, at 5 µM
T2 sequence (whole entry): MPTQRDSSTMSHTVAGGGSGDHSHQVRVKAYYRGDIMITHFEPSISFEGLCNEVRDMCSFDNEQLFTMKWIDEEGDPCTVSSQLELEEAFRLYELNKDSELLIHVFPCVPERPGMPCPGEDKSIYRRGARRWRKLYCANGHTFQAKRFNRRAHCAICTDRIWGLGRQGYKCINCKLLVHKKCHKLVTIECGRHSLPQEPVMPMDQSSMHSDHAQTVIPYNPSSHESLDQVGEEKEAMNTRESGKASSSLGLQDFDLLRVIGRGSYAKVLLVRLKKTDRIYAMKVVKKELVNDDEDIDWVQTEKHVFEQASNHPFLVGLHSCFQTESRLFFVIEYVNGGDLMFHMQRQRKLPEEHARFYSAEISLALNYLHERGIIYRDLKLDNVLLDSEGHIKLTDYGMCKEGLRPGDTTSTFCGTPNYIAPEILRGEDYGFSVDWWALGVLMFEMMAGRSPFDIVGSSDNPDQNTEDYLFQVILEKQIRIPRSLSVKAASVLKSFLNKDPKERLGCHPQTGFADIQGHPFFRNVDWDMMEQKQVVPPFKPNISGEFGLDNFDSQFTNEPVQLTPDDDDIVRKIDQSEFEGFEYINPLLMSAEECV

[4] = biological target: Histone-lysine N-methyltransferase PRDM9 (Homo sapiens) (UniProt Q9NQV7); conditions: at 1 µM
Histone-lysine N-methyltransferase PRDM9 (Homo sapiens), sequence (Q9NQV7 whole entry): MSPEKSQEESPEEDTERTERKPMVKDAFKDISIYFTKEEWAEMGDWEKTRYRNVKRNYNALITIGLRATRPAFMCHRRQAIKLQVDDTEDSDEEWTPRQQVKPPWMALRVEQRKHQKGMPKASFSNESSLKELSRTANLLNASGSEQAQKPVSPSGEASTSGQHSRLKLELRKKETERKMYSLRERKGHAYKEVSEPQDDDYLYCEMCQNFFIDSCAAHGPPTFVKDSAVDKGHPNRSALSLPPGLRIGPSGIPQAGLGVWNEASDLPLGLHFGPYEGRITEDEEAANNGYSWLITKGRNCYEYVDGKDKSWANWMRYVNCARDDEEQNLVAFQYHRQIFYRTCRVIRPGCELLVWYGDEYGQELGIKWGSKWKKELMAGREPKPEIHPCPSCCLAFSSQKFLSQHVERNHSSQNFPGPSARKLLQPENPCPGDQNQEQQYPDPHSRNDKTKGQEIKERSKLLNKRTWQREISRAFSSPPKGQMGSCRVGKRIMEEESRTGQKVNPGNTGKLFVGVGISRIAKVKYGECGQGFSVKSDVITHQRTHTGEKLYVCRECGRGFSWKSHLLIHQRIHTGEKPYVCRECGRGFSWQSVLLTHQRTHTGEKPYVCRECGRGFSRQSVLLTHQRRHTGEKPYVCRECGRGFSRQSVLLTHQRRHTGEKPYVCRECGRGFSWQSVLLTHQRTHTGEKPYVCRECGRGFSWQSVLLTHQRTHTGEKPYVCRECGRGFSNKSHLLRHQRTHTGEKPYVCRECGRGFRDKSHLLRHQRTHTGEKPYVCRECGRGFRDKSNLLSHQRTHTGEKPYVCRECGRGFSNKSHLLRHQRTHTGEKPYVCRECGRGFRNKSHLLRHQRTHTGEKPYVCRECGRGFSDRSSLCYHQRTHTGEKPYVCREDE

[5] = biological target: T3, N-lysine methyltransferase KMT5A (Homo sapiens) (UniProt Q9NQR1); test: Selectivity interaction (Transferase panel (protein, RNA, and DNA methyltransferases. and EP300 (acetyltransferase))) EUB0000270b SETD8
T3 sequence (whole entry): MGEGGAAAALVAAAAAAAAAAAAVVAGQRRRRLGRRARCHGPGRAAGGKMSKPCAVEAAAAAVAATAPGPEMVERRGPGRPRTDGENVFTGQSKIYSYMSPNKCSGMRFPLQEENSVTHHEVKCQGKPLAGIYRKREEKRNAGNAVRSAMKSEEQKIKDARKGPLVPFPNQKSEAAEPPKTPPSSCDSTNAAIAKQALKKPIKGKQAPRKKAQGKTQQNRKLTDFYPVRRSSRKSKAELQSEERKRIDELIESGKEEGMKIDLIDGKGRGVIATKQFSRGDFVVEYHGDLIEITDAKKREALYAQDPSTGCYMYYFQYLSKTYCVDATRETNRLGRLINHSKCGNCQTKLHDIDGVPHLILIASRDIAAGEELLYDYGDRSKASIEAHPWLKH

[6] = biological target: Transcription intermediary factor 1-beta (Homo sapiens) (UniProt Q13263); test: Selectivity interaction (Bromodomain panel (DSF asssay)) EUB0000270b TRIM28
[7] = biological target: Macrophage colony-stimulating factor 1 receptor (Homo sapiens) (UniProt P07333); test: Selectivity interaction (Kinase panel (Carna Biosciences)) EUB0001542aTs CSF1R; conditions: at 1 µM
Macrophage colony-stimulating factor 1 receptor (Homo sapiens), sequence (P07333 whole entry): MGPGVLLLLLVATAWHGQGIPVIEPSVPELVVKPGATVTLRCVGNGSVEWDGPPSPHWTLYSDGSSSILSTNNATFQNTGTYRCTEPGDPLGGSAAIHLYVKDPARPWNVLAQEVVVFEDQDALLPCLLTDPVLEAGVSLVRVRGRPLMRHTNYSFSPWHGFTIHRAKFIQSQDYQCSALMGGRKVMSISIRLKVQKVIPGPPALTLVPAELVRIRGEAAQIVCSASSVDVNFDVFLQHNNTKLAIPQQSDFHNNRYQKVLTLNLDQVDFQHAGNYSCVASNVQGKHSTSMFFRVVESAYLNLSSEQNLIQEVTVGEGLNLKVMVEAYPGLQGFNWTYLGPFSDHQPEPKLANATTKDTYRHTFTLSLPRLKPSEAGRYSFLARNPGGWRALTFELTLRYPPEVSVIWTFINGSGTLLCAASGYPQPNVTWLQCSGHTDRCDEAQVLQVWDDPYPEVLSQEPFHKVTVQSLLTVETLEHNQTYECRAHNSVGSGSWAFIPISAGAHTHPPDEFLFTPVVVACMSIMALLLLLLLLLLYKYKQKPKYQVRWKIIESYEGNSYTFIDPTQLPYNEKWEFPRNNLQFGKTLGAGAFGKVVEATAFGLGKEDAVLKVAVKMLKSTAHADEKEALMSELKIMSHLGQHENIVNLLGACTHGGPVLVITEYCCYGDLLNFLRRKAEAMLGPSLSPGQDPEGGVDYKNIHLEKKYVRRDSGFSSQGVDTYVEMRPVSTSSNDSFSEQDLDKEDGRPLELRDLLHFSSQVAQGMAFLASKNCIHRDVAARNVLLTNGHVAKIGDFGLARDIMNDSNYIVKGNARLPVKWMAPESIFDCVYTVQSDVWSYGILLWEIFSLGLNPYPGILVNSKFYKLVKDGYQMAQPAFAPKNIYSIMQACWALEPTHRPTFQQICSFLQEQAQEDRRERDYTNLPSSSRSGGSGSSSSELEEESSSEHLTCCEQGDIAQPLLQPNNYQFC

[8] = biological target: P2X purinoceptor 1 (Homo sapiens) (UniProt P51575); test: Selectivity interaction (Eurofins CEREP Diversity Profile (receptors and ion channels)) EUB0000279b P2RX1; conditions: at 10 µM
P2X purinoceptor 1 (Homo sapiens), sequence (P51575 whole entry): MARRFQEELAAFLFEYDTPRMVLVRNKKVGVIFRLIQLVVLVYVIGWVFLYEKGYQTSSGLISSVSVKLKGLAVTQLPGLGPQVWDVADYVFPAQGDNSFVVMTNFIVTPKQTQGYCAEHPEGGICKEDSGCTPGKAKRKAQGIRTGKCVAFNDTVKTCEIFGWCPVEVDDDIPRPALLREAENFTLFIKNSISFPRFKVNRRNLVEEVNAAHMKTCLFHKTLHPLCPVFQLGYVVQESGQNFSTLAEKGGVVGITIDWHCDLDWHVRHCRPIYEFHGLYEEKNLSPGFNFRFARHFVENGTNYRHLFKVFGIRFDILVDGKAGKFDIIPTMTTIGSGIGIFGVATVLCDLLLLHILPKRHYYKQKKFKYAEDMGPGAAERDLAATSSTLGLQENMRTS

[9] = biological target: Serine/threonine-protein kinase N2 (Homo sapiens, UniProt Q16513); test: Selectivity interaction (KinomeScan (DiscoverX)) EUB0000092b PKN2; conditions: at 10 µM
Serine/threonine-protein kinase N2, sequence (Q16513 whole entry, looked up): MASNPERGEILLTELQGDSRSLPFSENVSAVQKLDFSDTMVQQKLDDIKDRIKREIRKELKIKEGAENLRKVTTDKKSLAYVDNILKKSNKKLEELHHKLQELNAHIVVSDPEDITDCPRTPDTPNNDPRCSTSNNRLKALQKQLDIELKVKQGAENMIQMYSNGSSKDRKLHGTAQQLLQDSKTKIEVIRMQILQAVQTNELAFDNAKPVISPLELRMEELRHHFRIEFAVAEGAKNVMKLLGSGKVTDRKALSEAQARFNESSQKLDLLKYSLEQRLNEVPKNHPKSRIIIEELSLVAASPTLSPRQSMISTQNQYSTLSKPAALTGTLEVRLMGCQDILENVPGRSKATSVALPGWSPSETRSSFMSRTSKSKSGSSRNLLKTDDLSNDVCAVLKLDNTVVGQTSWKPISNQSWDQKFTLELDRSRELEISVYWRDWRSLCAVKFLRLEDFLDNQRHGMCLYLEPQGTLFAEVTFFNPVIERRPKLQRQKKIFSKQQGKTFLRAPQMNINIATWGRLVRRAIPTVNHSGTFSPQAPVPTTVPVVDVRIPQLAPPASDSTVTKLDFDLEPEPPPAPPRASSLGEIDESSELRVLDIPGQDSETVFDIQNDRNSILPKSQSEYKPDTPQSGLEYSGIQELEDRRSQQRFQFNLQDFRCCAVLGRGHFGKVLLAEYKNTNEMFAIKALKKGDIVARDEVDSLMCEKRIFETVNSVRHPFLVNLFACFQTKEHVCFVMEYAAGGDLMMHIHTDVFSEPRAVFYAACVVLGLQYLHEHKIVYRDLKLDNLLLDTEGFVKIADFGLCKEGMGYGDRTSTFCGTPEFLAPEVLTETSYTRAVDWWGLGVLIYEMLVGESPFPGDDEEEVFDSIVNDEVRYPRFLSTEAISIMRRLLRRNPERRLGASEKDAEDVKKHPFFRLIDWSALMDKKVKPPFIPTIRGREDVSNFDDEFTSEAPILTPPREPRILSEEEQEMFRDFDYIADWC

[10] = biological target: Ribosomal protein S6 kinase alpha-1 (Homo sapiens, UniProt Q15418); test: Selectivity interaction (ActivX KiNativ screen (ex vivo kinase selectivity in human PBMCs)) EUB0001619a RPS6KA1; format: cell-based; conditions: PBMC, at 1 µM
Ribosomal protein S6 kinase alpha-1, sequence (Q15418 whole entry): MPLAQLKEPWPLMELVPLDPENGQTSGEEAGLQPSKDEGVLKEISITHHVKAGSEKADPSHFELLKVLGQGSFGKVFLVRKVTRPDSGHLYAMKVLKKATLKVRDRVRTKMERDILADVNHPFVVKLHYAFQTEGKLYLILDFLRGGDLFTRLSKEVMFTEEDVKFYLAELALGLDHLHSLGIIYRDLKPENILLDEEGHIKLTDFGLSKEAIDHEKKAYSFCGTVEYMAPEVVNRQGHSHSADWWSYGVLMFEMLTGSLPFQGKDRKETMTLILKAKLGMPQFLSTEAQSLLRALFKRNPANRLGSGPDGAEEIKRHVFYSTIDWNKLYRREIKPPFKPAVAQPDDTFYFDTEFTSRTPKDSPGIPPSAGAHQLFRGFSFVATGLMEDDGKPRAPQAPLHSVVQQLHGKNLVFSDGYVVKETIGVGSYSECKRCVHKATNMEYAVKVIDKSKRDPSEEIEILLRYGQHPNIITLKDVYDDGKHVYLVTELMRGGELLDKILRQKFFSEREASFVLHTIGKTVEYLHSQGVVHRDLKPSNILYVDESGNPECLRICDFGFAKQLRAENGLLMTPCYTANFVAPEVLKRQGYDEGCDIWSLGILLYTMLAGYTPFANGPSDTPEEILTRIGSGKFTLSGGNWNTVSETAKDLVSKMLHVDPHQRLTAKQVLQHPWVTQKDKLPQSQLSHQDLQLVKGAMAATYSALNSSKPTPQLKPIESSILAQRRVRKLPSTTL

[11] = biological target: T4, Aurora kinase C (Homo sapiens) (UniProt Q9UQB9); test: Selectivity interaction (SelectScreen profiling (Invitrogen)) EUB0000607a AURKC; conditions: at 2 µM
T4 sequence (whole entry): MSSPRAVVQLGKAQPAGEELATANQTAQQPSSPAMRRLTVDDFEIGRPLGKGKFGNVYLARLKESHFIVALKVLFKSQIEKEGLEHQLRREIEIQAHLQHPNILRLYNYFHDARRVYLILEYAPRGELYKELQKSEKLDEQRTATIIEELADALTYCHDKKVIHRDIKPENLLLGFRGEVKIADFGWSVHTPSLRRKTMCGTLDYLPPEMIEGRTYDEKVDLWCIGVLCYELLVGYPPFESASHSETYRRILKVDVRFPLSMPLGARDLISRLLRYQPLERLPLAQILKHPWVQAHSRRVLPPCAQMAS

[12] = biological target: Serine/threonine-protein kinase N1 (Homo sapiens, UniProt Q16512); test: Selectivity interaction (Kinase panel (KiNativ target engagement assay in Jurkat cells)) EUB0001635a PKN1; format: cell-based; conditions: Selectivity number of off-targets 0.0, Selectivity number of targets 233.0, Source Knowledge https://www.sciencedirect.com/science/article/pii/S2451945619300674?via%3Dihub, at 1 µM

Structure (SMILES): COc1cc(Nc2nc(C)cc(-c3cnn4nc(OC)ccc34)n2)cc(C(F)(F)F)c1
% of control [1]: 75%

% of inhibition [2]: -11.5% | % of inhibition [3]: 14.6%
Structure (SMILES): CC[C@@H]1[C@H](F)C(=O)N[C@@H]1COc1nccc2cc(C(N)=O)c(OC)cc12 [ZIMLOVISERTIB]

% activity [4]: > 90%
Structure (SMILES): CNCCN1CCC(c2cc(CN(C)C(=O)c3cccc(Oc4ccccc4)c3)ccn2)CC1

% activity ([5]; at 1 µM): > 90% | % activity ([5]; at 10 µM): > 80% | dTM [6]: -1.65 K
Structure (SMILES): Cc1cc(CN)cc(C)c1-c1ncn(C)c1-c1cncn1C

% of inhibition [7]: 59%
Structure (SMILES): Cn1cc(Nc2nccc(N3CC4CCC(C3)N4C(=O)[C@@H]3CC3(F)F)n2)cn1

% of control [8]: 89%
Structure (SMILES): CC(=O)c1cc(-c2ccccc2OCC2CC2)c2ncccn12

Structure (SMILES): CCC(=O)N1CCN(c2ccc(-n3c(=O)ccc4cnc5ccc(-c6cnc7ccccc7c6)cc5c43)cc2C(F)(F)F)CC1
% of control [9]: 65%

Structure (SMILES): N#Cc1cccc(-c2c[nH]c3ncnc(N4CCOCC4)c23)c1
% of inhibition [10]: 56%

Structure (SMILES): CNC(=O)Nc1ccc(-c2nc(N3CC4CCC(C3)O4)c3cnn(C4CCC5(CC4)OCCO5)c3n2)cc1
% of inhibition [11]: 4%

Structure (SMILES): C=CC(=O)Nc1ccc(C(=O)Nc2[nH]nc3c2CN(C(=O)N[C@H](CN(C)C)c2ccccc2)C3(C)C)cc1
% of engagement [12]: -7.3%
